# Entries after “also recorded” stand apart in the source; their conditions may differ.
# Assays:
# Arabidopsis aos mutant = assay type: in vivo, Arabidopsis thaliana; conditions: for time after application at which aos mutant siliques started to elongate / time for aos mutant siliques to reach the wild-type silique size: after OPDA and MeJA spraying; for rescue of male sterile phenotype (silique elongation, fertility) of aos mutant: flower buds of 4 week old plants, twice a day for two days, 1% LA or 2 mM MeJA sprayed, 1 mM OPDA dipped, siliques monitored two weeks
# Procedure: Application of linolenic acid (LA; Cayman Chemical, USA) and methyl jasmonate (MeJA; Sigma-Aldrich, USA) to recover male sterility of Arabidopsis aos mutant was done by spraying 1% of LA and 2 mM MeJA directly on Arabidopsis flower buds of 4 week old plants grown under long day condition. Oxo-phytodienoic acid (OPDA; Cayman Chemical, USA) was applied by dipping of floral buds in the 1 mM OPDA and 0.01% TritonX-100 (Sigma-Aldrich, USA) solution. These plants were sprayed twice a day for two days. The plants were monitored for silique production over the next two weeks.
# The AOS gene is important in jasmonate biosynthesis because it catalyzes the most upstream step in the JA-specific biosynthetic pathway (FIG. 1).
# [1] = test system: triple mutant (fad3-2/fad7-2/fad8); conditions: mutant lacking hexadecatrienoic acid (16:3) and LA (18:3); McConn and Browse (1996); cited from earlier work
# [2] = test system: male-sterile mutant (dad1); conditions: Ishiguro et al. (2001); cited from earlier work
Compound,time after application at which aos mutant siliques started to elongate (Arabidopsis aos mutant),time for aos mutant siliques to reach the wild-type silique size (Arabidopsis aos mutant),"rescue of male sterile phenotype (silique elongation, fertility) of aos mutant (Arabidopsis aos mutant)",rescue of male sterility [1],rescue of sterility phenotype [2]
"CC/C=C\CC1C(=O)CCC1CC(=O)OC (stereo not drawn) [MeJA, methyl jasmonate]",Two,in a week,rescued to wild-type; also recorded: can rescue the aos male sterile phenotype,,
"CC/C=C\C[C@@H]1C(=O)C=C[C@@H]1CCCCCCCC(=O)O [OPDA, Oxo-phytodienoic acid]",Two,in a week,rescued to wild-type,,
"CC/C=C\C[C@H]1C(=O)CC[C@@H]1CC(=O)O [jasmonic acid, Jasmonic acid]",,,restoration of essentially wild-type siliques and recovered fertility,could be rescued,could be rescued
